These results are taken from US20060287319A1, “Anti-viral compositions comprising heterocyclic substituted phenyl furans and related compounds” (priority 2005, published 2006).

One data set concerns HIV-1 RF. The following applies: read-out: IC50 (μM) (Mean ± SD); HIV-1 strain RF. The protocol:
(§1) Assessment of anti-HIV-1 infectivity. The inhibitory activity of compounds on infection by laboratory-adapted HIV-1 strains was determined as previously described (34). In brief, 1×10^4 MT-2 cells were infected with HIV-1 at 100 TCID50 (50% tissue culture infective dose) in 200 μl of RPMI 1640 medium containing 10% FBS in the presence or absence of compounds at graded concentrations overnight. For the time-of-addition assay, compounds were added at various time post-infection. Then the culture supernatants were removed and fresh media were added. On the fourth day post-infection, 100 μl of culture supernatants were collected from each well, mixed with equal volumes of 5% Triton X-100 and assayed for p24 antigen, which was quantitated by ELISA (23). Briefly, the wells of polystyrene plates (Immulon 1B, Dynex Technology, Chantilly, Va.) were coated with HIV immunoglobulin (HIVIG), which was prepared from plasma of HIV-seropositive donors with high neutralizing titers against HIV-1IIIB as previously described (36) in 0.085 M carbonate-bicarbonate buffer (pH 9.6) at 4° C. overnight, followed by washes with PBS-T buffer (0.01M PBS containing 0.05% Tween-20) and blocking with PBS containing 1% dry fat-free milk (Bio-Rad Inc., Hercules, Calif.). Virus lysates were added to the wells and incubated at 37° C. for 1 h. […] Reactions were terminated by addition of 1N H2SO4. Absorbance at 450 nm was recorded in an ELISA reader (Ultra 384, Tecan). Recombinant protein p24 (US Biological, Swampscott, Mass.) was included for establishing standard dose response curve.

Data set [1] deals with HIV-1 AZT-R, a strain resistant to AZT. The following applies: read-out: IC50 (μM) (Mean ± SD); HIV-1 strain AZT-R. Here is the method:
as §1

Data set [2] has as its system laboratory-adapted HIV-1 strains, including RF, SF2, MN, and AZT-R. The conditions noted are these: dose-dependent. Here is the method: as §1
In another data set the test system is HIV-1 SF2. The following applies: read-out: IC50 (μM) (Mean ± SD); HIV-1 strain SF2. Here is the method:
as §1

For the next data set, the system named is 92US657 (clade B, R5). The following applies: read-out: EC50 (μM) (Mean ± SD). Here is the method:
(§2) Inhibitory activity of compounds on infection by primary HIV-1 isolates was determined as previously described (37). PBMCs were isolated from the blood of healthy donors at the New York Blood Center by standard density gradient centrifugation using Histopaque-1077 (Sigma). The cells were plated in 75 cm^2 plastic flasks and incubated at 37° C. for 2 hrs. The nonadherent cells were collected and resuspended at 5×10^6 in 10 ml RPMI-1640 medium containing 10% FBS, 5 μg/ml PHA and 100 U/ml IL-2 (Sigma), followed by incubation at 37° C. for 3 days. The PHA-stimulated cells were infected with corresponding primary HIV-1 isolates at 0.01 multiplicity of infection (MOI) in the absence or presence of a compound at graded concentrations. Culture media were changed every 3 days. The supernatants were collected 7 days post-infection and tested for p24 antigen by ELISA as described above. The percent inhibition of p24 production and IC50 values were calculated as described above.

In another data set the test system is RU570 (clade G, R5). The conditions noted are these: read-out: EC50 (μM) (Mean ± SD). Here is the method: as §2
In the next data set the test system is 92THA009 (clade E, R5). The following applies: read-out: EC50 (μM) (Mean ± SD). The protocol: as §2
For another data set, the system named is 93BR020 (clade F, X4R5). The conditions noted are these: read-out: EC50 (μM) (Mean ± SD). Here is the method: as §2
Another data set relates to 92UG001 (clade D, X4). The conditions noted are these: read-out: EC50 (μM) (Mean ± SD). The protocol: as §2
In a further data set the test system is 94UG103 (clade A, X4R5). The following applies: read-out: EC50 (μM) (Mean ± SD). The protocol:
as §2

The test system of the next data set is 93MW959 (clade C, R5). The following applies: read-out: EC50 (μM) (Mean ± SD). The protocol: as §2
Another data set deals with BCF02 (clade O, R5). The conditions noted are these: read-out: EC50 (μM) (Mean ± SD). Here is the method:
as §2

The next data set concerns HIV-1 IIIB. Put plainly: HIV-1-mediated cytopathic effect (CPE). It counts as cell-based. The conditions noted are these: read-out: EC50 (μM) (M ± SD) for inhibition of CPE. An excerpt:
We thus purchased these compounds and tested their inhibitory activity on: 1) HIV-1 replication (p24 production); 2) HIV-1-mediated cytopathic effect (CPE); and 3) HIV-1 Env-induced cell-cell fusion; and their cytotoxicity to MT-2 cells.

Data set [3] deals with gp41 six-helix bundle formation between N36 and C34 (Human immunodeficiency virus type 1 group M subtype B, UniProt P04578). The conditions noted are these: read-out: IC50 for inhibition of six-helix bundle formation between N36 and C34; sandwich ELISA, FIG. 3. Here is the method:
ELISA for screening for compounds that inhibit the gp41 six-helix bundle formation. A sandwich ELISA as previously described (27) was used to screen for compounds that inhibit the gp41 six-helix bundle formation. Briefly, peptide N36 (2 μM) was pre-incubated with a test compound at the indicated concentrations at 37° C. for 30 min, followed by addition of C34 (2 μM). In the control experiments, N36 was pre-incubated with C34 at 37° C. for 30 min, followed by addition of the test compound. After incubation at 37° C. for 30 min, the mixture was added to wells of a 96-well polystyrene plate (Costar, Corning Inc., Corning, N.Y.) which were precoated with IgG (2 μg/ml) purified from rabbit antisera directed against the N36/C34 mixture. […] Absorbance at 450 nm was measured using an ELISA reader (Ultra 384, Tecan, Research Triangle Park, N.C.). […] Chou (Sloan-Kettering Cancer Center, New York, N.Y.).
A model system of the gp41 six-helix bundle was established by mixing the N— and C-peptides at equal molar concentrations (16).

[4] abbreviates: read-out: Cytotoxicity CC50 (μM) (M ± SD), MT-2 cells.

Read-outs that look alike come from different tables or passages of the source. Bounds are passed on as bounds.

gp41 six-helix bundle formation between N36 and C34, sequence (P04578 546-581): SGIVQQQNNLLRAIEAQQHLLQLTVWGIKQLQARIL

Turning to `O=C(O)c1cc(-c2ccc(/C=C3\SC(=S)N(CCc4ccccc4)C3=O)o2)ccc1Cl` [NB206], the IC50 in the data set with HIV-1 RF was 0.034 ± 0.014 µM; in data set [1] it was 0.046 ± 0.004 µM; in the data set on HIV-1 SF2 it was 0.261 ± 0.062 µM; in data set [3], 830 ± 30 nM. The “IC50 values, infection by other laboratory-adapted HIV-1 strains” value (“IC50 values, infection” for short) in [2] is on record as “nanomolar range”. In addition, in the data set with MT-2 cells (setting [4]), the CC50 is 18.8 ± 7.48 µM. Moreover, the EC50 with 92US657 (clade B, R5) was 0.216 ± 0.054 µM; with RU570 (clade G, R5), 0.017 ± 0.004 µM; in the data set on 92THA009 (clade E, R5), 0.075 ± 0.022 µM; with 93BR020 (clade F, X4R5) it was 0.084 ± 0.036 µM; in the data set with 92UG001 (clade D, X4), 0.188 ± 0.053 µM; in the data set with 94UG103 (clade A, X4R5), 0.004 ± 0.001 µM. The EC50 in the data set with 93MW959 (clade C, R5) was determined as 0.097 ± 0.002 µM; in the data set with BCF02 (clade O, R5), 0.073 ± 0.012 µM; in the data set with HIV-1 IIIB, 0.092 ± 0.002 µM.
Take `O=C(O)c1cccc(-c2ccc(/C=C3\SC(=S)N(c4ccc(Cl)cc4Cl)C3=O)o2)c1` [NB231]: the IC50 came out at 0.152 ± 0.029 µM in the data set on HIV-1 RF, 0.823 ± 0.053 µM in [1], 4.68 ± 0.559 µM in the data set with HIV-1 SF2 and 930 ± 330 nM in [3]. Also, the “IC50 values, infection” value in data set [2] is listed as “nanomolar range”. In the data set on MT-2 cells (setting [4]), the CC50 is 124.1 ± 0.756 µM. Further, the EC50 came to 1.06 ± 0.344 µM in the data set on 92US657 (clade B, R5); 0.143 ± 0.061 µM with RU570 (clade G, R5); 0.217 ± 0.058 µM in the data set with 92THA009 (clade E, R5); 0.139 ± 0.033 µM in the data set on 93BR020 (clade F, X4R5); 0.19 ± 0.002 µM in the data set on 92UG001 (clade D, X4); 0.125 ± 0.013 µM with 94UG103 (clade A, X4R5). Moreover, the concentration giving a half-maximal response (EC50) with 93MW959 (clade C, R5) was determined as 0.876 ± 0.002 µM; in the data set with BCF02 (clade O, R5), 0.226 ± 0.003 µM; in the data set with HIV-1 IIIB it was 0.525 ± 0.126 µM.
For the compound `CCN1C(=O)/C(=C/c2ccc(-c3cccc(C(=O)O)c3)o2)SC1=S` [NB179], the IC50 with HIV-1 RF was 4.2 ± 0.256 µM; in data set [1] it was 4.39 ± 0.471 µM; with HIV-1 SF2 it was 11.9 ± 1.7 µM; in data set [3], 2510 ± 270 nM. Moreover, the “IC50 values, infection” value in [2] is “nanomolar range”. Moreover, the CC50 in the data set with MT-2 cells is above 616 µM. Also, the concentration giving a half-maximal response (EC50) in the data set on 92US657 (clade B, R5) turned out to be 0.847 ± 0.356 µM; in the data set with RU570 (clade G, R5), 0.431 ± 0.122 µM; in the data set on 92THA009 (clade E, R5) it was 6.21 ± 0.987 µM; in the data set with 93BR020 (clade F, X4R5), 0.143 ± 0.056 µM; in the data set with 92UG001 (clade D, X4), 0.613 ± 0.099 µM; in the data set on 94UG103 (clade A, X4R5), 0.088 ± 0.047 µM. The EC50 with 93MW959 (clade C, R5) was 1.87 ± 0.155 µM; in the data set on BCF02 (clade O, R5), 0.886 ± 0.242 µM; with HIV-1 IIIB it was 0.924 ± 0.077 µM.
